{"source": "patent US10800792B2", "about": "“Inhibitors of Bruton's tyrosine kinase and method of their use” (JANSSEN PHARMACEUTICA NV, priority 2015, dated 2020)", "data": [{"target": "unphosphorylated-BTK kinase domain (UP-BTK), GST-tagged human BTK (389-659aa) (Homo sapiens (Human), UniProt Q06187)", "sequence (Q06187 389-659)": "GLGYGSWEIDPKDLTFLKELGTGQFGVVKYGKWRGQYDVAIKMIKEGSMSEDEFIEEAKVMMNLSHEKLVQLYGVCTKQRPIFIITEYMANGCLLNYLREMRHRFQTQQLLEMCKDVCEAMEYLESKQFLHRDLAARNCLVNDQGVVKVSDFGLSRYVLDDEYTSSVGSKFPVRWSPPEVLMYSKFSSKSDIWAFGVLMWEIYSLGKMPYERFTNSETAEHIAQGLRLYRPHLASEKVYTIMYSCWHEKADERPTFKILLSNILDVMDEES", "assay": "BTK kinase Lanthascreen binding assay", "conditions": "Lanthascreen tracer competition, 60 minutes incubation; pIC50 = negative log of the IC50 in molar", "procedure,_shortened": "(§1)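 Measures how well compounds compete with a fluorescence-labelled tracer for binding to BTK in its unphosphorylated state. IC50 values were fitted and expressed as pIC50 (negative logarithm of the molar IC50).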", "values": [{"smiles": "Cc1nc(Oc2ccccc2)ncc1N1C(=O)Nc2c(C(=O)N[C@@H]3CCNC3)sc3nccc1c23", "note": "(single isomer, unassigned) [Example 715, (R)-5-(*S)-(4-Methyl-2-phenoxypyrimidin-5-yl)-4-oxo-N-(pyrrolidin-3-yl)-4,5-dihydro-3H-1-thia-3,5,8-triazaacenaphthylene-2-carboxamide]", "BTK_I_binding pIC50": 6.3}, {"smiles": "CC(C)(C)OC(=O)N1CCC[C@@H](NC(=O)c2sc3nccc4c3c2NC(=O)N4c2ccc(OC3CCC3)nc2)C1", "note": "[Example 654, (R)-tert-Butyl 3-(5-(6-cyclobutoxypyridin-3-yl)-4-oxo-4,5-dihydro-3H-1-thia-3,5,8-triazaacenaphthylene-2-carboxamido)piperidine-1-carboxylate]", "BTK_I_binding pIC50": "<5"}, {"smiles": "Cc1ccc(Oc2ccccc2)cc1N1C(=O)Nc2c(C(=O)N[C@@H]3CCCN(C(=O)/C(C#N)=C/C4CC4)C3)sc3nccc1c23", "note": "(racemic) [Example 875, (E)-N-(1-(2-Cyano-3-cyclopropylacryloyl)piperidin-3-yl)-5-(2-methyl-5-phenoxyphenyl)-4-oxo-4,5-dihydro-3H-1-thia-3,5,8-triazaacenaphthylene-2-carboxamide]", "BTK_I_binding pIC50": 7.2}, {"smiles": "C=CC(=O)N1CCC[C@@H](NC(=O)c2sc3nccc4c3c2NC(=O)N4c2ccc(OC3CCC3)nc2C)C1", "note": "(single isomer, unassigned) [Example 682, (R)—N-(1-Acryloylpiperidin-3-yl)-5-(*S)-(6-cyclobutoxy-2-methylpyridin-3-yl)-4-oxo-4,5-dihydro-3H-1-thia-3,5,8-triazaacenaphthylene-2-carboxamide]", "BTK_I_binding pIC50": 7.3}, {"smiles": "N#CN1CCC(NC(=O)c2sc3nccc4c3c2NC(=O)N4c2ccc(Oc3ccccc3)cc2)CC1", "note": "[Example 594, N-(1-Cyanopiperidin-4-yl)-4-oxo-5-(4-phenoxyphenyl)-4,5-dihydro-3H-1-thia-3,5,8-triazaacenaphthylene-2-carboxamide]", "BTK_I_binding pIC50": 7.1}, {"smiles": "C=CC(=O)N1CCC[C@@H](NC(=O)c2sc3nccc4c3c2NC(=O)N4c2ccc(O[C@H]3CCOC3)cc2C)C1", "note": "[Example 785, N—((R)-1-Acryloylpiperidin-3-yl)-5-(2-methyl-4-(((S)-tetrahydrofuran-3-yl)oxy)phenyl)-4-oxo-4,5-dihydro-3H-1-thia-3,5,8-triazaacenaphthylene-2-carboxamide]", "BTK_I_binding pIC50": 7.1}, {"smiles": "C=CC(=O)N1CCC[C@@H](NC(=O)c2sc3nccc4c3c2NC(=O)N4c2cccc(CC(C)C)c2)C1", "note": "[Example 689, (R)—N-(1-Acryloylpiperidin-3-yl)-5-(3-isobutylphenyl)-4-oxo-4,5-dihydro-3H-1-thia-3,5,8-triazaacenaphthylene-2-carboxamide]", "BTK_I_binding pIC50": 7.6}, {"smiles": "C=CC(=O)N1CC[C@@H](NC(=O)c2sc3nccc4c3c2NC(=O)N4c2ccc(Oc3cccc(COc4ccccc4C#N)c3)cc2C)C1", "note": "[Example 847, (R)—N-(1-Acryloylpyrrolidin-3-yl)-5-(4-(3-((2-cyanophenoxy)methyl)phenoxy)-2-methylphenyl)-4-oxo-4,5-dihydro-3H-1-thia-3,5,8-triazaacenaphthylene-2-carboxamide]", "BTK_I_binding pIC50": 7.6}]}, {"target": "unphosphorylated-BTK kinase domain (UP-BTK), GST-tagged human BTK (389-659aa) (Homo sapiens (Human), UniProt Q06187)", "assay": "BTK kinase Lanthascreen binding assay", "conditions": "Lanthascreen tracer competition, 60 minutes incubation; pIC50 = negative log of the IC50 in molar; read-out: BTK_I_binding pIC50 (converted)", "procedure,_shortened": "as §1", "units": {"IC50": "nM"}, "values": [{"smiles": "C=CC(=O)N1CCC[C@@H](NC(=O)c2sc3nccc4c3c2NC(=O)N4c2ccc(Oc3ccccc3)cc2C)C1", "note": "[Example 839, (R)—N-(1-Acryloylpiperidin-3-yl)-5-(2-methyl-4-phenoxyphenyl)-4-oxo-4,5-dihydro-3H-1-thia-3,5,8-triazaacenaphthylene-2-carboxamide]", "IC50": 12.6}, {"smiles": "Cc1cc(Oc2ccccc2)ncc1N1C(=O)Nc2c(C(=O)N[C@@H]3COC[C@@H]3N)sc3nccc1c23", "note": "(racemic) [Example 707]", "IC50": 200}]}, {"target": "unphosphorylated-BTK kinase domain (UP-BTK), GST-tagged human BTK (389-659aa) (Homo sapiens (Human), UniProt Q06187)", "assay": "BTK kinase Lanthascreen binding assay", "conditions": "pIC50 = negative log of the IC50 in molar; 60 minutes incubation, 50 nM Tracer 236", "procedure,_shortened": "as §1", "values": [{"smiles": "Cc1cc(Oc2ccccc2)ccc1N1C(=O)Nc2c(C(=O)NCCN3CCNC3=O)sc3nccc1c23", "note": "[Example 217, 5-(2-Methyl-4-phenoxyphenyl)-4-oxo-N-(2-(2-oxoimidazolidin-1-yl)ethyl)-4,5-dihydro-3H-1-thia-3,5,8-triazaacenaphthylene-2-carboxamide]", "BTK_I_binding pIC50": 6.5}, {"smiles": "COCCC(=O)N1CCC[C@@H](NC(=O)c2sc3nccc4c3c2NC(=O)N4c2ccc(Oc3ccccc3)cc2F)C1", "note": "[Example 215, (R)-5-(2-Fluoro-4-phenoxyphenyl)-N-(1-(3-methoxypropanoyl)piperidin-3-yl)-4-oxo-4,5-dihydro-3H-1-thia-3,5,8-triazaacenaphthylene-2-carboxamide]", "BTK_I_binding pIC50": 7.2}, {"smiles": "Cc1cc(Oc2ccccc2)ccc1N1C(=O)Nc2c(C(=O)N[C@@H]3CCCN(C(=O)/C(F)=C/C4CC4)C3)sc3nccc1c23", "note": "[Example 228, (R,Z)—N-(1-(3-Cyclopropyl-2-fluoroacryloyl)piperidin-3-yl)-5-(2-methyl-4-phenoxyphenyl)-4-oxo-4,5-dihydro-3H-1-thia-3,5,8-triazaacenaphthylene-2-carboxamide]", "BTK_I_binding pIC50": 6.6}, {"smiles": "Cc1cccc(Oc2ccc(N3C(=O)Nc4c(C(=O)N[C@@H]5CCCN(C)C5)sc5nccc3c45)c(C)c2)c1", "note": "[Example 210, (R)-5-(2-Methyl-4-(m-tolyloxy)phenyl)-N-(1-methylpiperidin-3-yl)-4-oxo-4,5-dihydro-3H-1-thia-3,5,8-triazaacenaphthylene-2-carboxamide]", "BTK_I_binding pIC50": 6.7}, {"smiles": "Cc1cc(Oc2ccccc2)ccc1N1C(=O)Nc2c(C(=O)N[C@H]3CNC[C@@H]3O)sc3nccc1c23", "note": "[Example 236, N-((3S,4S)-4-Hydroxypyrrolidin-3-yl)-5-(2-methyl-4-phenoxyphenyl)-4-oxo-4,5-dihydro-3H-1-thia-3,5,8-triazaacenaphthylene-2-carboxamide]", "BTK_I_binding pIC50": 7.0}, {"smiles": "Cc1cc(Oc2ccccc2)ccc1N1C(=O)Nc2c(C(=O)N[C@@H]3CCCN(C(=O)/C(C#N)=C/C(C)(C)N4CCCCC4)C3)sc3nccc1c23", "note": "[Example 150, (R,E)-N-(1-(2-Cyano-4-methyl-4-(piperidin-1-yl)pent-2-enoyl)piperidin-3-yl)-5-(2-methyl-4-phenoxyphenyl)-4-oxo-4,5-dihydro-3H-1-thia-3,5,8-triazaacenaphthylene-2-carboxamide]", "BTK_I_binding pIC50": 6.9}, {"smiles": "Cc1cc(Oc2ccccc2)ccc1N1C(=O)Nc2c(C(=O)N[C@@H]3CCCN(C(=O)[C@@H]4CCN(C)C4)C3)sc3nccc1c23", "note": "[Example 145, 5-(2-Methyl-4-phenoxyphenyl)-N—((R)-1-((R)-1-methylpyrrolidine-3-carbonyl)piperidin-3-yl)-4-oxo-4,5-dihydro-3H-1-thia-3,5,8-triazaacenaphthylene-2-carboxamide]", "BTK_I_binding pIC50": 7.0}, {"smiles": "Cc1cc(Oc2ccccc2)ccc1N1C(=O)Nc2c(C(=O)N[C@@H]3CCCN(C(=O)/C(C#N)=C\\C(C)(C)N(C)C)C3)sc3nccc1c23", "note": "[Example 134, (R,Z)—N-(1-(2-Cyano-4-(dimethylamino)-4-methylpent-2-enoyl)piperidin-3-yl)-5-(2-methyl-4-phenoxyphenyl)-4-oxo-4,5-dihydro-3H-1-thia-3,5,8-triazaacenaphthylene-2-carboxamide]", "BTK_I_binding pIC50": 7.1}]}, {"target": "unphosphorylated-BTK kinase domain (UP-BTK), GST-tagged human BTK (389-659aa) (Homo sapiens (Human), UniProt Q06187)", "assay": "BTK kinase Lanthascreen binding assay", "conditions": "pIC50 = negative log of the IC50 in molar; 60 minutes incubation, 50 nM Tracer 236; read-out: BTK_I_binding pIC50 (converted)", "procedure,_shortened": "as §1", "units": {"IC50": "nM"}, "values": [{"smiles": "COc1ccc(N2C(=O)Nc3c(C(=O)N[C@@H]4CCCN(C(=O)/C(C#N)=[13CH]\\C5CC5)C4)sc4nccc2c34)c(C)c1", "note": "[Example 176, ^13C—(R,Z)—N-(1-(2-Cyano-3-cyclopropylacryloyl)piperidin-3-yl)-5-(4-methoxy-2-methylphenyl)-4-oxo-4,5-dihydro-3H-1-thia-3,5,8-triazaacenaphthylene-2-carboxamide]", "IC50": 63.1}, {"smiles": "C=CC(=O)N1CCC[C@@H](NC(=O)c2sc3nccc4c3c2NC(=O)N4c2ccc(OC3CCCCC3)cc2C)C1", "note": "[Example 32, (R)—N-(1-Acryloylpiperidin-3-yl)-5-(4-(cyclohexyloxy)-2-methylphenyl)-4-oxo-4,5-dihydro-3H-1-thia-3,5,8-triazaacenaphthylene-2-carboxamide]", "IC50": 50.1}]}, {"target": "unphosphorylated-BTK kinase domain (UP-BTK), GST-tagged human BTK (389-659aa) (Homo sapiens (Human), UniProt Q06187)", "assay": "BTK kinase Lanthascreen binding assay", "conditions": "unphosphorylated-BTK kinase domain, 50 nM Tracer 236, 60 minutes; pIC50 = negative log of the IC50 in molar", "procedure,_shortened": "as §1", "values": [{"smiles": "CC(=O)N1CCC[C@@H](NC(=O)c2sc3nccc4c3c2NC(=O)N4c2ccc(Oc3ccccc3)c(Cl)c2)C1", "note": "[Example 582, (R)—N-(1-Acetylpiperidin-3-yl)-5-(3-chloro-4-phenoxyphenyl)-4-oxo-4,5-dihydro-3H-1-thia-3,5,8-triazaacenaphthylene-2-carboxamide]", "BTK_I_binding pIC50": 6.7}, {"smiles": "CC(C)Oc1ccc(N2C(=O)Nc3c(C(=O)N[C@@H]4CCCN(C(=O)/C(C#N)=C/C5CC5)C4)sc4nccc2c34)cc1", "note": "[Example 399, (R,E)-N-(1-(2-Cyano-3-cyclopropylacryloyl)piperidin-3-yl)-5-(4-isopropoxyphenyl)-4-oxo-4,5-dihydro-3H-1-thia-3,5,8-triazaacenaphthylene-2-carboxamide]", "BTK_I_binding pIC50": 7.5}, {"smiles": "C=CC(=O)N1CC[C@@H](NC(=O)c2sc3nccc4c3c2NC(=O)N4c2ccccc2F)C1", "note": "[Example 301, (R)—N-(1-Acryloylpyrrolidin-3-yl)-5-(2-fluorophenyl)-4-oxo-4,5-dihydro-3H-1-thia-3,5,8-triazaacenaphthylene-2-carboxamide]", "BTK_I_binding pIC50": 6.0}, {"smiles": "C=CC(=O)N1CCC[C@@H](NC(=O)c2sc3nccc4c3c2NC(=O)N4c2ccc(Cl)c(Cl)c2)C1", "note": "[Example 360, (R)—N-(1-Acryloylpiperidin-3-yl)-5-(3,4-dichlorophenyl)-4-oxo-4,5-dihydro-3H-1-thia-3,5,8-triazaacenaphthylene-2-carboxamide]", "BTK_I_binding pIC50": 6.7}]}, {"target": "unphosphorylated-BTK kinase domain (UP-BTK), GST-tagged human BTK (389-659aa) (Homo sapiens (Human), UniProt Q06187)", "assay": "BTK kinase Lanthascreen binding assay", "conditions": "unphosphorylated-BTK kinase domain, 60 minutes incubation, 50 nM Tracer 236; pIC50 = negative log of the IC50 in molar", "procedure,_shortened": "as §1", "values": [{"smiles": "Cc1ccc(N2C(=O)Nc3c(C(=O)N[C@@H]4CCCNC4)sc4nccc2c34)cc1", "note": "[Example 952, (R)-4-Oxo-N-(piperidin-3-yl)-5-(p-tolyl)-4,5-dihydro-3H-1-thia-3,5,8-triazaacenaphthylene-2-carboxamide]", "BTK_I_binding pIC50": 5.1}]}]}
